pEC50: −log10 of the molar value.

One experiment concerns the target T1, human calcium receptor (Homo sapiens, UniProt P41180).
T1 construct: expressed in transfected cells; host or cells: HEK293
T1 sequence (P41180 20-1078): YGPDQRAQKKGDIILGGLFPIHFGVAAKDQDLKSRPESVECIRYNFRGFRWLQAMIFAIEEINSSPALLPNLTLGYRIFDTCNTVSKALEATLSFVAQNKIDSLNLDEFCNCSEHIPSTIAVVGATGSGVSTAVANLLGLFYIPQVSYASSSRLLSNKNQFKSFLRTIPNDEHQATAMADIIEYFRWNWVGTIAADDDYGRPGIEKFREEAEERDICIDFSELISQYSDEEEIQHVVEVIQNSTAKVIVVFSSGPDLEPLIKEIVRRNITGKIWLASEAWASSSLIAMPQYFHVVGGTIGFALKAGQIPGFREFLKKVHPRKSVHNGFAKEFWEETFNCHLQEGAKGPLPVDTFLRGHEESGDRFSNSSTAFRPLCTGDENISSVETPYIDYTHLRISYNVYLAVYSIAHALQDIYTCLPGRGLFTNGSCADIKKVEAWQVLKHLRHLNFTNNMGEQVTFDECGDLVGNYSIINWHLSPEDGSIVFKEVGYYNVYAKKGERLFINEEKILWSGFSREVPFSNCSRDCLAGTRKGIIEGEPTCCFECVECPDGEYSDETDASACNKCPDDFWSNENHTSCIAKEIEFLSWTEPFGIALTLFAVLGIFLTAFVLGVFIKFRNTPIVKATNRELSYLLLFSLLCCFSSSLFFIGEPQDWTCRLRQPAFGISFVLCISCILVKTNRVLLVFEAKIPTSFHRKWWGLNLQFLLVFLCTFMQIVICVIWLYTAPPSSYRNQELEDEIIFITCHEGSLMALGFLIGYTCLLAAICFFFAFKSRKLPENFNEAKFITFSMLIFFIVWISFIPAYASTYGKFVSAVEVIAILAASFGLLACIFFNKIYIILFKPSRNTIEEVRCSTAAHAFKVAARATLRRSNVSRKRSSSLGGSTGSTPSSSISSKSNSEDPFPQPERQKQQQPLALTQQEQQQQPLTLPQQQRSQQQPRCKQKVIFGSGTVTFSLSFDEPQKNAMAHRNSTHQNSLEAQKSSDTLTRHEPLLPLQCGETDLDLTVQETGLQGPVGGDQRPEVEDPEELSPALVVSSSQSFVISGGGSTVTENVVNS
As to the kind of experiment: Activity on calcium receptors: fluo-3 fluorescence in HEK293 cells transfected with human calcium receptor gene. The format is cell-based. The note with it: HEK293 cells transfected with plasmid pHuPCaR4.0 (human calcium receptor gene), loaded with fluo-3; 1 mM CaCl2, 1 mM MgCl2. As for the experimental part:
The activities of the compounds of the present invention on calcium receptors were measured. The measurement was performed in accordance with the method described in Example 4 of Nemeth et al., PCT/US95/13704 (International Publication No. WO96/12697). In brief, HEK293 cells were transfected with a plasmid pHuPCaR4.0 containing a human calcium receptor gene and loaded with fluo-3. The loading was carried out by incubating the cells at 37° C. for 1 hour in Dulbecco's modified Eagle's medium which contained about 5 μM of fluo-3/AM and had been buffered with 20 mM HEPES. Next, the cells were rinsed with Hank's balanced salt solution which contained 1 mM CaCl2 and 1 mM MgCl2 and had been buffered with 20 mM HEPES. Then each test compound was added to the cells and the fluorescence was measured with the use of an excitation wavelength of 485 nm and an emission wavelength of 540 nm.

Another experiment deals with normal male SD rats. As to the kind of experiment: Plasma Ca^2+ level of rats after single oral administration. The class given is in vivo. The note with it: rat, mean of six animals, vehicle 10% cyclodextrin (** 1% sodium-CMC). As for the experimental part:
The compound of the present invention was administered to rats so as to examine the effects of the compound on the plasma calcium ion level and serum PTH level. The test was performed by orally administering single dose of the compound of the invention or a control compound to normal male SD rats with six animals in each group.
To the group 1 was administered as a control a 10% cyclodextrin aqueous solution in a dose of 2.5 ml/kg. To the group 2 was administered as a reference (R)-N-(3-(2-chlorophenyl)propyl)-1-(3-methoxyphenyl)ethylamine (KRN568) dissolved in a 10% cyclodextrin aqueous solution in a dose of 30 μmol/kg. To the group 3 was administered the compound of the present invention dissolved in a 10% cyclodextrin aqueous solution in a dose of 30 μmol/kg, provided that 1% sodium-CMC aqueous solution was used in place of 10% cyclodextrin aqueous solution for the compounds marked with ** in Table 2.
Blood of each rat was collected from the tail tip before the administration and 30 minutes and 1, 2, 4, 8 and 24 hours thereafter (or at the time indicated in Table 2), and the plasma Ca^2+ level and serum PTH level were measured. The data of the serum PTH level were statistically processed by the multiple comparison analysis in accordance with Steel's calibration by using the group 1 as the control.

The pEC50 is the EC50 on a negative log10 scale, so that one unit is a factor of ten. As for `CC(NCCSc1cc(Cl)ccc1Cl)c1cccc(OCCCCCCCl)c1` (racemic) [Compound K-2260, (±)-N-(1-(3-(6-chlorohexyloxy)phenyl)ethyl)-2-(2′,5′-dichlorophenylthio)ethylamine], the negative logarithm of the EC50 (pEC50) on human calcium receptor is 7.02.
Still for that read-out and setting: to `Cc1ccc(COc2cccc(C(C)NCCSc3cc(Cl)ccc3Cl)c2)cc1` (racemic) [Compound K-2268, (±)-N-(1-(3-(4-methylbenzyloxy)phenyl)ethyl)-2-(2′,5′-dichlorophenylthio)ethylamine] belongs 7.05; to `COc1cccc(C(C)NCCCCOc2ccccc2Cl)c1` (stereo not drawn) [Compound 2], 4.89.
For the compound `COc1cccc(C(C)NCCCCCCOc2ccccc2Cl)c1` (stereo not drawn) [Compound 6], the pEC50 at human calcium receptor was 5.12.
On the same count and under the same terms, to `COc1cccc(C(C)NCCCCOc2cccc(Cl)c2)c1` (stereo not drawn) [Compound 8] belongs 5.72; to `COc1cccc(C(C)NCCCCCOc2cccc(Cl)c2)c1` (stereo not drawn) [Compound 10], 6.00.
Same read-out and setting: to `COc1cccc(C(C)NCCCCCCOc2cccc(Cl)c2)c1` (stereo not drawn) [Compound 12] belongs 5.92; to `COc1cccc([C@@H](C)NCCCCOc2ccc(Cl)cc2)c1` [Compound 14], 5.54; to `COc1cccc(C(C)NCCCCCOc2ccc(Cl)cc2)c1` (stereo not drawn) [Compound 16], 6.26.
On the same count and under the same terms, under `COc1cccc(C(C)NCCCCCCOc2ccc(Cl)cc2)c1` (stereo not drawn) [Compound 18] stands 6.12.
In the case of `COc1cccc(C(C)NCCCSc2ccccc2Cl)c1` (stereo not drawn) [Compound 20], the pEC50 at human calcium receptor is 5.49.
For the compound `COc1cccc(C(C)NCCCCCSc2ccccc2Cl)c1` (stereo not drawn) [Compound 24], the negative-log EC50 (pEC50) at human calcium receptor is 6.36.
Still for that read-out and setting: under `COc1cccc(C(C)NCCCCCCSc2ccccc2Cl)c1` (stereo not drawn) [Compound 26] stands 5.74.
The same measure, in the same setting: to `COc1cccc(C(C)NCCCSc2ccc(Cl)cc2)c1` (stereo not drawn) [Compound 28] belongs 5.80; to `COc1cccc(C(C)NCCCCSc2nc3ccccc3s2)c1` (stereo not drawn) [Compound 36], 6.68; to `COc1cccc(C(C)NCCCCCSc2nc3ccccc3s2)c1` (stereo not drawn) [Compound 38], 6.01.
Still for that read-out and setting: under `COc1cccc([C@@H](C)NCCCCCCSc2nc3ccccc3s2)c1` [Compound 40] stands 5.29; under `COc1cccc(C(C)NCCCOC2c3ccccc3-c3ccccc32)c1` (stereo not drawn) [Compound 56], 6.55.
Turning to `COc1cccc(C(C)NCCCOc2ccc3c(c2)Cc2ccccc2-3)c1` (stereo not drawn) [Compound 59], on human calcium receptor, the negative logarithm of the EC50 (pEC50) was 5.99.
The same measure, in the same setting: to `COc1cccc(C(C)NCCCOc2ccccc2Cl)c1` (stereo not drawn) [Compound 62] belongs 6.29; to `COc1cccc(C(C)NCCCOc2cccc(Cl)c2)c1` (stereo not drawn) [Compound 65], 6.28.
Still for that read-out and setting: under `COc1cccc(C(C)NCCCOc2ccc(Cl)cc2)c1` (stereo not drawn) [Compound 68] stands 6.19.
For `COc1cccc(C(C)NCCCOc2ccc3ccccc3c2)c1` (stereo not drawn) [Compound 74], at human calcium receptor, the negative logarithm of the EC50 (pEC50) is 5.14.
Consider `COc1cccc(C(C)NCCCSc2ccc3ccccc3c2)c1` (stereo not drawn) [Compound 77], for which the pEC50 on human calcium receptor was 6.00.
Still for that read-out and setting: to `COc1cccc(C(C)NCCCOc2ccc3[nH]ccc3c2)c1` (stereo not drawn) [Compound 80] belongs 6.33; to `COc1cccc([C@@H](C)NCCCOc2ccc(-c3ccccc3)cc2)c1` [Compound 83], 6.00; to `COc1cccc(C(C)NCCCNC(C)c2cccc(OC)c2)c1` (stereo not drawn) [Compound 88], 5.49.
Regarding `CC(NCCCNC(C)c1cccc2ccccc12)c1cccc2ccccc12` (stereo not drawn) [Compound 93], the pEC50 on human calcium receptor was 6.96.
On the same count and under the same terms, to `CC(NCCCOc1ccc2oc(-c3ccccc3)cc(=O)c2c1)c1cccc2ccccc12` (stereo not drawn) [Compound 103] belongs 6.52.
With `COc1cccc([C@@H](C)NCCCc2ccccc2Cl)c1` [KRN568, (R)-N-(3-(2-chlorophenyl)propyl)-1-(3-methoxyphenyl)ethylamine, reference compound], in the experiment with normal male SD rats (1 hr after single oral dose 30 μmol/kg), the “Plasma Ca^2+ (mmol/l) 1 hr” value was 1.305 mmol/L. The “Plasma Ca^2+ (mmol/l) 2 hr” value in the experiment on normal male SD rats (2 hr after single oral dose 30 μmol/kg) was 1.237 mmol/L. Also, the “Plasma Ca^2+ (mmol/l) 4 hr” value in the experiment on normal male SD rats (4 hr after single oral dose 30 μmol/kg) was determined as 1.290 mmol/L. In addition, the “Plasma Ca^2+ (mmol/l) 8 hr” value with normal male SD rats (8 hr after single oral dose 30 μmol/kg) was 1.340 mmol/L.

The values are drawn from patent publication US7816408B2, “Calcium receptor active compounds” (NPS Pharmaceuticals, Inc., priority 2002, dated 2010).
